From US7960381B2, “Substituted gamma lactams as therapeutic agents” (Allergan, Inc., priority 2007, dated 2011)

System: normotensive dogs
Experiment: Ocular surface hyperemia in normotensive dogs
Type: in vivo
Settings: once daily for 5 days
Protocol: U.S. Pat. No. 7,091,231 describes the methods used for these in vivo tests.
5-(3-{(S)-1-[4-(1-Hydroxyhexyl)-phenyl]-5-oxo-pyrrolidin-2-yl}-propyl)-thiophene-2-carboxylic acid 2-hydroxyethyl ester (1) was tested in normotensive dogs at 0.003%, dosing once daily for 5 days. The maximum intraocular pressure (IOP) decrease from baseline was 4.4 mmHg (32%) at 30 h; the maximum ocular surface hyperemia (OSH) score was 0.9 at 30 h. This compound was also tested in laser-induced hypertensive monkeys, using one single day dose. At 0.003%, the maximum IOP decrease from baseline was 13.4 mmHg (38%) at 24 h. Compound 1 was also tested in normotensive dogs at 0.001%, dosing once daily for 5 days. The maximum intraocular pressure (IOP) decrease from baseline was 3.75 mmHg (23%) at 76 h; the maximum ocular surface hyperemia (OSH) score was 1.1 at 74 h. Compound 1 was also tested in laser-induced hypertensive monkeys, using one single day dose. At 0.001%, the maximum IOP decrease from baseline was 12.7 mmHg (31%) at 24 h.
5-(3-{(S)-1-[4-(1-Hydroxyhexyl)-phenyl]-5-oxo-pyrrolidin-2-yl}-propyl)-thiophene-2-carboxylic acid 2-morpholin-4-yl-ethyl ester (2) was tested in normotensive dogs at 0.003%, dosing once daily for 5 days. The maximum intraocular pressure (IOP) decrease from baseline was 5.9 mmHg (36%) at 52 h; the maximum ocular surface hyperemia (OSH) score was 1.1 at 50 h. This compound was also tested in laser-induced hypertensive monkeys, using one single day dose. At 0.003%, the maximum IOP decrease from baseline was 20 mmHg (53%) at 24 h.

[1] = 0.003%, maximum at 30 h (1), 50 h (2)

SMILES	maximum ocular surface hyperemia (OSH) score (0.001%, maximum at 74 h)	maximum ocular surface hyperemia (OSH) score [1]
CCCCCC(O)c1ccc(N2C(=O)CC[C@@H]2CCCc2ccc(C(=O)OCCO)s2)cc1 (single isomer, unassigned) [Compound 1]	1.1	0.9
CCCCCC(O)c1ccc(N2C(=O)CC[C@@H]2CCCc2ccc(C(=O)OCCN3CCOCC3)s2)cc1 (single isomer, unassigned) [Compound 2]	–	1.1
